Drawing on paper PMC5470982, “Thymoquinone exerts potent growth-suppressive activity on leukemia through DNA hypermethylation reversal in leukemia cells” (Oncotarget, 2017), this text covers IC50 for one compound.

Molecules are shown by their SMILES.

This assay concerns the target T1, M. SssI (Spiroplasma monobiae, UniProt P15840).
T1 construct: gene sssIM
The assay can be described thus: in vitro DNA methylation assay with biotin/digoxigenin-labelled ds-oligonucleotide, HpaII cleavage and fluorescence readout. The format is biochemical.

T1 sequence (P15840 whole entry, looked up): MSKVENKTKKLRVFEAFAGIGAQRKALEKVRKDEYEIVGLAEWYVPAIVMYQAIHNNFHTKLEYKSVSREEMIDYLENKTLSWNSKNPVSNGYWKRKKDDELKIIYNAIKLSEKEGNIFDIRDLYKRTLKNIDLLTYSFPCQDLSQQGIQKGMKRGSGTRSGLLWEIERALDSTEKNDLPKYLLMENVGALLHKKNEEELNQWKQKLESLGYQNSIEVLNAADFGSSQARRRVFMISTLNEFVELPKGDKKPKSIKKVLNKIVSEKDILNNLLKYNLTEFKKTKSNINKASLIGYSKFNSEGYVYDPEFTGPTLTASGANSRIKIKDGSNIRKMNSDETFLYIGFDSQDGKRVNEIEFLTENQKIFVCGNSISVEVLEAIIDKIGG

Usually IC50 stands for the concentration that inhibits the measured activity by half. As to `CC1=CC(=O)C(C(C)C)=CC1=O` [TQ, thymoquinone], half-maximal inhibition (IC50) was put at 30 nM.
